Our source for the Ki values is patent publication US7553861B2, “Dipeptidyl peptidase-IV inhibitors” (Alantos Pharmaceuticals Holding, Inc., priority 2005, dated 2009).

The term Ki denotes a dissociation constant, usually derived from enzyme kinetics or from competition with a known ligand.

T1 sequence (P27487 whole entry): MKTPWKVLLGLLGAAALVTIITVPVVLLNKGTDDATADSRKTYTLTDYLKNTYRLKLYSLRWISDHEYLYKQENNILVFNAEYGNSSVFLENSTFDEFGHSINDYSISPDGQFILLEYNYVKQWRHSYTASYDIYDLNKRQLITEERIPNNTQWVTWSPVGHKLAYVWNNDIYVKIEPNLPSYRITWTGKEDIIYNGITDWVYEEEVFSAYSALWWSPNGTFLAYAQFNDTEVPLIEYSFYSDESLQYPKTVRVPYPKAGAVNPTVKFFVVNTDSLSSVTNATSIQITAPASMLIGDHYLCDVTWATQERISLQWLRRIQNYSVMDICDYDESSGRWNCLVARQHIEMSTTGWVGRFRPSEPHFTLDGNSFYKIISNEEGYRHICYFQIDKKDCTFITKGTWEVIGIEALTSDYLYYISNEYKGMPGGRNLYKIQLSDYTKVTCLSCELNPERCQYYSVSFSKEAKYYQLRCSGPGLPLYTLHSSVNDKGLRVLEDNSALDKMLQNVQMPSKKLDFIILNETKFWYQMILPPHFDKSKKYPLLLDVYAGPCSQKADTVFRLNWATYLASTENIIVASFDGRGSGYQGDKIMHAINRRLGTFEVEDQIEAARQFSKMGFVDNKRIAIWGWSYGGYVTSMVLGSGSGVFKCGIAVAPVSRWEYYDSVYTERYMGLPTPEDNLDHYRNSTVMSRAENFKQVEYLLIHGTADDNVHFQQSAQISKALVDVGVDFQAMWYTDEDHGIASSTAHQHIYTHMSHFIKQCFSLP

This assay has as its target T1, DPP-IV (Homo sapiens, UniProt P27487).
T1 construct: purchased R&D Systems GmbH, Germany
The experiment in a line: Assay for determining DP-IV inhibition (fluorometric, Gly-Pro-AMC substrate). The format is biochemical. Conditions: Inhibition of DPP-IV, K(i) calculated from IC(50) with IC(50)=K(i)(1+[S]/Km), pH 8.0. How it is done:
The inhibitory activity of compounds against DPP-IV can be determined by in vitro assay systems, which are themselves well established in the art. The assay results given in Table 5 were obtained according to the following method, employing a modified version of the assay described by Leiting et al., in an article entitled “Catalytic properties and inhibition of proline-specific dipeptidyl peptidases II, IV and VII” in Biochem. J. Vol. 371, pages 525-532 (2003):
DPP-IV activity was determined fluorometrically with Gly-Pro-AMC (where AMC stands for 7-amido-4-methylcoumarin, Bachem AG, Switzerland) as substrate. The reaction mixture contained 10 μl of 1 ng/μl DPP-IV (R&D Systems GmbH, Germany) and 80 μl of 25 mM Tris/HCl buffer, pH 8.0. Compounds were supplied as DMSO stock solutions and diluted in assay buffer to a maximal DMSO concentration of 1% in the assay. Prior to start of the reaction, the mixture was incubated for 30 min at room temperature. The reaction was started by addition of 10 μl of 100 μM substrate solution.
The fluorescence intensity was measured at excitation and emission wavelengths of 355 and 460 nm, respectively, in a FluoStar Galaxy Multiwell Plate (BMG Labtech, Germany). Fluorescence was determined 3 and 4 minutes after start of reaction and increase in fluorescence was used for determination of enzymatic activity. IC(50) values of tested compounds were determined via plotting enzymatic activity versus concentration of test compound and determining the concentration of test compound which yields a 50% inhibition of enzymatic activity.
K(i) values were calculated using the Michaelis-Menten equation for competitive inhibition: IC(50)=K(i)(1+[S]/Km)
On to `N#C[C@@H]1CCCN1C(=O)CNCCNC1c2ccccc2CCc2ccccc21` [Example 1], for which the Ki is 51 to 500 nM.
`N#C[C@@H]1CCCN1C(=O)CNC1c2ccccc2CCc2ccccc21` [Example 2]: the Ki was 500 to 30000 nM.
Consider `CC(C)(CNC1c2ccccc2CCc2ccccc21)NCC(=O)N1CCC[C@H]1C#N` [Example 3], for which the inhibition constant Ki is 500 to 30000 nM.
The same measure for `N#C[C@@H]1CCCN1C(=O)CNCC1c2ccccc2CCc2ccccc21` [Example 4]: 500 to 30000 nM.
With `N#C[C@@H]1CCCN1C(=O)CNCC(=O)N1c2ccccc2CCc2ccccc21` [Example 5] the figure was 500 to 30000 nM; with `N#C[C@@H]1CCCN1C(=O)CNCCN1c2ccccc2C=Cc2ccccc21` [Example 7], 51 to 500 nM.
With `N#C[C@@H]1CCCN1C(=O)CNCCCN1c2ccccc2CCc2ccccc21` [Example 9] the figure was 51 to 500 nM; with `N#C[C@@H]1CCCN1C(=O)CNCCC1(O)c2ccccc2CCc2ccccc21` [Example 10], 51 to 500 nM; with `N#C[C@@H]1CCCN1C(=O)CNCC=C1c2ccccc2CCc2ccccc21` [Example 11], 51 to 500 nM.
For `N#C[C@@H]1CCCN1C(=O)CNC1CCN(C2c3ccccc3CCc3ccccc32)CC1` [Example 12], the Ki was 51 to 500 nM.
As for `N#C[C@@H]1CCCN1C(=O)CNC1CCN(C2c3ccccc3CCc3ccccc32)C1` (stereo partly shown) [Example 13], the Ki is 51 to 500 nM.
The same measure for `N#C[C@@H]1CCCN1C(=O)CNC1CN(C2c3ccccc3CCc3ccccc32)C1` [Example 14]: 500 to 30000 nM; for `N#C[C@@H]1CCCN1C(=O)CNC1c2ccc(Cl)cc2CCc2cccnc21` (stereo partly shown) [Example 15]: 500 to 30000 nM; for `N#C[C@@H]1CCCN1C(=O)CNCCC1(C#N)c2ccccc2CCc2ccccc21` [Example 16]: 51 to 500 nM.
The same measure for `N#C[C@@H]1CCCN1C(=O)CNCCC1(C(N)=O)c2ccccc2CCc2ccccc21` [Example 17]: 6 to 50 nM.
Turning to `C[C@@H](CC1(C(N)=O)c2ccccc2CCc2ccccc21)NCC(=O)N1CCC[C@H]1C#N` [Example 18], the Ki was under 6 nM.
For the molecule `C[C@H](CC1(C(N)=O)c2ccccc2CCc2ccccc21)NCC(=O)N1CCC[C@H]1C#N` [Example 19], the Ki is 6 to 50 nM.
The same measure for `N#C[C@@H]1CCCN1C(=O)CNCCNC1c2ccc(Cl)cc2CCc2cccnc21` (stereo partly shown) [Example 20]: 51 to 500 nM.
With `N#C[C@@H]1CCCN1C(=O)CNCCNC1c2ccccc2CCc2cccnc21` (stereo partly shown) [Example 21] the figure was 51 to 500 nM; with `N#C[C@@H]1CCCN1C(=O)CNCCC1(C(N)=O)c2ccc(C(N)=O)cc2CCc2ccc(F)cc21` (stereo partly shown) [Example 22], under 6 nM.
The same measure for `N#C[C@@H]1CCCN1C(=O)CNCCC1(c2nn[nH]n2)c2ccccc2CCc2ccccc21` [Example 23]: 6 to 50 nM.
As for `N#C[C@@H]1CCCN1C(=O)CNCCC1(c2nn[nH]n2)c2ccc(F)cc2CCc2ccc(F)cc21` (stereo partly shown) [Example 24], the Ki is under 6 nM.
With `N#C[C@@H]1CCCN1C(=O)CNCCC1(c2nn[nH]n2)c2ccc(Cl)cc2CCc2cc(Cl)ccc21` [Example 25] the figure was 6 to 50 nM; with `C[C@@H](CN1C[C@@H]2C[C@H]1C(=O)N2Cc1cccc(F)c1)NCC(=O)N1CCC[C@H]1C#N` [Example 26], 51 to 500 nM.
The same measure for `C[C@@H](CC1(c2nn[nH]n2)c2ccc(C(N)=O)cc2CCc2cc(C(N)=O)ccc21)NCC(=O)N1CCC[C@H]1C#N` [Example 27]: under 6 nM.
Regarding `CNC(=O)c1ccc2c(c1)CCc1cc(C(=O)NC)ccc1C2(C[C@H](C)NCC(=O)N1CCC[C@H]1C#N)c1nn[nH]n1` [Example 28], the Ki was under 6 nM.
In the case of `C[C@@H](CC1(c2nn[nH]n2)c2ccc(C(=O)N(C)C)cc2CCc2cc(C(=O)N(C)C)ccc21)NCC(=O)N1CCC[C@H]1C#N` [Example 29], the Ki was under 6 nM.
The same measure for `CCNC(=O)c1ccc2c(c1)CCc1cc(C(=O)NCC)ccc1C2(C[C@H](C)NCC(=O)N1CCC[C@H]1C#N)c1nn[nH]n1` [Example 30]: under 6 nM.
As for `CC(C)NC(=O)c1ccc2c(c1)CCc1cc(C(=O)NC(C)C)ccc1C2(C[C@H](C)NCC(=O)N1CCC[C@H]1C#N)c1nn[nH]n1` [Example 31], the Ki was 6 to 50 nM.
The same measure for `C[C@@H](CC1(c2nn[nH]n2)c2ccc(C(=O)N3CCC3)cc2CCc2cc(C(=O)N3CCC3)ccc21)NCC(=O)N1CCC[C@H]1C#N` [Example 32]: under 6 nM.
The same measure for `C[C@@H](CC1(c2nn[nH]n2)c2ccc(C(=O)N3CCOCC3)cc2CCc2cc(C(=O)N3CCOCC3)ccc21)NCC(=O)N1CCC[C@H]1C#N` [Example 33]: under 6 nM; for `N#C[C@@H]1CCCN1C(=O)CNCCC1(c2nn[nH]n2)c2ccc(C(N)=O)cc2CCc2cc(C(N)=O)ccc21` [Example 34]: under 6 nM.
With `CNC(=O)c1ccc2c(c1)CCc1cc(C(=O)NC)ccc1C2(CCNCC(=O)N1CCC[C@H]1C#N)c1nn[nH]n1` [Example 35] the figure was under 6 nM; with `CN(C)C(=O)c1ccc2c(c1)CCc1cc(C(=O)N(C)C)ccc1C2(CCNCC(=O)N1CCC[C@H]1C#N)c1nn[nH]n1` [Example 36], 6 to 50 nM.
Regarding `C[C@@H](CC1(C(N)=O)c2ccc(C(=O)N(C)C)cc2CCc2cc(C(=O)N(C)C)ccc21)NCC(=O)N1CCC[C@H]1C#N` [Example 39], the inhibitory constant (Ki) was 6 to 50 nM.
The same measure for `C[C@@H](CC1(c2noc(C(F)(F)F)n2)c2ccc(C(=O)N(C)C)cc2CCc2cc(C(=O)N(C)C)ccc21)NCC(=O)N1CCC[C@H]1C#N` [Example 40]: 500 to 30000 nM.
Consider `COC(=O)c1ccc2c(c1)CCc1cc(C(=O)OC)ccc1C2(C[C@H](C)NCC(=O)N1CCC[C@H]1C#N)c1nn[nH]n1` [Example 43], for which the Ki was under 6 nM.
With `C[C@@H](CC1(c2nn[nH]n2)c2ccc(C(=O)O)cc2CCc2cc(C(=O)O)ccc21)NCC(=O)N1CCC[C@H]1C#N` [Example 44] the figure was under 6 nM.
Consider `N#C[C@@H]1CCCN1C(=O)CNCCC1(c2nn[nH]n2)c2cc(F)ccc2CCc2ccc(C(N)=O)cc21` (stereo partly shown) [Example 45], for which the Ki was 6 to 50 nM.
For `CN1C(=O)c2ccccc2C(CCNCC(=O)N2CCC[C@H]2C#N)(c2nn[nH]n2)c2ccccc21` (stereo partly shown) [Example 46], the Ki is 500 to 30000 nM.
The same measure for `N#C[C@@H]1C[C@@H]2C[C@@H]2N1C(=O)CNCCC1(c2nn[nH]n2)c2ccc(C(N)=O)cc2CCc2cc(C(N)=O)ccc21` [Example 47]: under 6 nM; for `N#C[C@@H]1CCCN1C(=O)[C@@H](N)CN1C[C@@H]2C[C@H]1C(=O)N2Cc1cccc(F)c1` [Example 48]: under 6 nM; for `N#C[C@@H]1CCCN1C(=O)[C@@H](N)CN1C[C@@H]2C[C@H]1C(=O)N2Cc1c(Cl)cccc1Cl` [Example 49]: under 6 nM.
On to `C[C@@H](c1ccc(F)cc1)N1C(=O)[C@@H]2CC1CN2C[C@H](N)C(=O)N1CCSC1` [Example 50], for which the Ki was 6 to 50 nM.
As for `N#C[C@@H]1CCCN1C(=O)[C@@H](N)CN1CC2C[C@H]1C(=O)N2Cc1cc(F)cc(F)c1` [Example 51], the Ki is under 6 nM.
With `N#C[C@@H]1C[C@@H]2C[C@@H]2N1C(=O)[C@@H](N)CN1CC2C[C@H]1C(=O)N2Cc1cc(F)cc(F)c1` [Example 52] the figure was under 6 nM; with `N#Cc1cccc(CN2C(=O)[C@@H]3CC2CN3C[C@H](N)C(=O)N2CCC[C@H]2C#N)c1` [Example 53], under 6 nM; with `N#Cc1cccc(CN2C(=O)[C@@H]3CC2CN3C[C@H](N)C(=O)N2[C@H](C#N)C[C@@H]3C[C@@H]32)c1` [Example 54], under 6 nM.
For the molecule `N#Cc1ccc(CN2C(=O)[C@@H]3CC2CN3C[C@H](N)C(=O)N2CCC[C@H]2C#N)cc1` [Example 55], the Ki was under 6 nM.
The same measure for `C[C@H](c1ccc(F)cc1)N1C(=O)[C@@H]2CC1CN2C[C@H](N)C(=O)N1CCC[C@H]1C#N` [Example 56]: under 6 nM; for `C[C@@H](c1ccc(F)cc1)N1C(=O)[C@@H]2CC1CN2C[C@H](N)C(=O)N1CCC[C@H]1C#N` [Example 57]: under 6 nM; for `C[C@@H](c1ccc(F)cc1)N1C(=O)[C@@H]2CC1CN2C[C@H](N)C(=O)N1[C@H](C#N)C[C@@H]2C[C@@H]21` [Example 58]: under 6 nM.
With `CC(C)(c1ccc(F)cc1)N1C(=O)[C@@H]2CC1CN2C[C@H](N)C(=O)N1CCC[C@H]1C#N` [Example 59] the figure was under 6 nM.
The same measure for `N#C[C@@H]1CCCN1C(=O)[C@@H](N)CN1CC2C[C@H]1C(=O)N2Cc1cccc(C(N)=O)c1` [Example 60]: under 6 nM; for `N#C[C@@H]1CCCN1C(=O)[C@@H](N)CN1CC2C[C@H]1C(=O)N2Cc1ccc(C(N)=O)cc1` [Example 61]: under 6 nM.
On to `CC(C)(c1ccc(F)cc1)N1C(=O)[C@@H]2CC1CN2C[C@H](N)C(=O)N1[C@H](C#N)C[C@@H]2C[C@@H]21` [Example 62], for which the inhibition constant Ki was under 6 nM.
With `N#C[C@@H]1CCCN1C(=O)[C@@H]1C[C@H](N2C[C@@H]3C[C@H]2C(=O)N3Cc2cccc(F)c2)CN1` [Example 63] the figure was under 6 nM; with `N#C[C@@H]1C[C@@H]2C[C@@H]2N1C(=O)[C@@H](N)CN1C[C@@H]2C[C@H]1C(=O)N2Cc1cccc(F)c1` [Example 64], under 6 nM.
